Reference: patent US9642829B2, “Antifungal compound and uses thereof” (The University of Hong Kong, priority 2012, dated 2017)

Assays:
[1] = test system: Candida albicans invasion of human oral keratinocytes; assay: Candida-human oral keratinocytes co-culture model; assay type: cell-based; details: 1×10^4 cells/ml C. albicans with human oral keratinocytes, 24-h incubation
Method: We also examined the ability of SM21 to inhibit invasion of Candida albicans in Candida-human oral keratinocytes co-culture model. Primary human oral keratinocytes (ScienCell Research Laboratories™, Carlsbad, Calif., USA) at passage two were cultured using Defined Keratinocyte-Serum Free Medium (Gibco, Grand Island, N.Y., USA) which contained 0.2% Defined Keratinocyte-SFM Growth Supplement (Gibco) and 1% penicillin/streptomycin solution. Cells were incubated at 37° C. in a humidified atmosphere with 5% CO2 and 95% air. Yeast cells for inoculation were cultured for 24 h at 37° C. on Sabouraud dextrose agar (Difco, Hampshire, England). A sample of the culture was washed thrice in PBS and an inoculum of approximately 2×10^5 cells was suspended in 10 ml of YPG medium (1% yeast extract, 2% peptone and 2% glucose; Difco, Detroit, Mich.). The suspension was cultured for 18 h at 37° C. with orbital shaking and the cells were harvested, washed in 0.9% NaCl and a sample of cells was resuspended in fresh medium in a shaker for 24 h at 37° C. Afterwards the cells were harvested by centrifuge and the inocula were prepared in phosphate buffered saline (PBS, pH 7.2). Human oral keratinocytes were grown to 80-90% confluence in u-Slide 8-well plates (ibidi GmbH Integrated BioDiagnostics, Martinsried, Germany). […]

[2] = test system: C. albicans, C. glabrata, C. krusei, C. tropicalis, C. parapsilosis, C. neoformans, Aspergillus fumigates and Penicillium marneffei; assay: Antifungal activity against wide range of fungal species (summary); assay type: cell-based; details: range over fungal species
Method: (§1) Antifungal activity of the small molecules was evaluated using USA standards, Clinical and Laboratory Standards Institute (CLSI) criteria. In brief, inocula from 24 h Candida cultures on Sabourauds's dextore agar were standardized to a turbidity equivalent of 0.5 McFarland standards at 520 nm with a spectrophotometer. The suspensions were further diluted in Rosewell Park Memorial Institute (RPMI) 1640 medium (Life technologies, New York, USA) to yield an inoculum concentration of approximately 0.5 1×10^3 to 2.5 1×10^3 cells/ml. Minimum inhibitory concentration (MIC) and minimum fungicidal concentration (MFC) assay was performed in 96-well plates (Iwaki, Tokyo, Japan) and each of the Candida species was exposed to a double dilution of SM21. Amphotericin B was used as a positive control. All the experiments were preformed three occasions with duplicates for all isolates. The plates were incubated at 35° C. for 48 h to evaluate MIC. In the case of Cryotococcus neoformans, reading were taken after 72 h. Aforementioned assay was performed for C. albicans ATCC 90028, C. albicans SC5314 and 10 C. albicans clinical isolates. Moreover, MIC/MFC determination was carried out for other fungal species such as C. glabrata, C. krusei, C. tropicalis, C. parapsilosis, C. neoformans, Aspergillus fumigates and Penicillium marneffei. […]

[3] = test system: mixed species Candida biofilms; assay: Mixed species Candida biofilm MIC, XTT reduction assay; assay type: cell-based; details: 48 h mixed species biofilms, two Candida species at 1×10^7 cells/ml each
Method: Clinical studies have shown that some of the Candida species could involve mixed Candida species such as C. albicans with non-albicans Candida species. Therefore, next we formed mixed species biofilms using the methods we have used in our previous published studies. This methodology is essentially similar to what mentioned under mono-species biofilms except initial inoculums involve two Candida species at equal inoculums size of 1×10^7 cells/ml. After 48 h of growth, mixed species Candida biofilms were subjected to serially diluted concentration of SM21 and MIC was determined by XTT reduction assay (FIG. 5).

[4] = In vivo safety in mouse model; details: 200 μg (100 times the effective dose of 2 μg) twice a day for five days
Method: Next, we used mouse model and treated the animals with 100 times of the effective dose (2 μg) i.e. 200 μg of SM21 twice a day for five days.

C. glabrata = assay: Antifungal susceptibility (MIC/MFC), CLSI criteria; assay type: cell-based, Candida glabrata; details: C. glabrata ATCC; 0.5 McFarland inoculum (10^6 cells/ml)
Method: as §1

SMILES: CN(C)c1ccc(/C=C/c2cc(C(C)(C)C)[o+]c(C(C)(C)C)c2)cc1.[O-][Cl+3]([O-])([O-])[O-] [SM21]
- Protection of keratinocytes from C. albicans invasion (LIVE/DEAD, confocal) [1]: able to prevent the epithelial cell damage
- Concentration with antifungal activity against wide range of fungal species [2]: 0.2 to 6.25 µg/mL
- Active concentration (MIC by XTT reduction assay) against mixed species biofilms [3]: 25 µg/mL
- Detrimental effect in terms of weight reduction and side effects [4]: did not show any detrimental effect
- Susceptibility (MIC90) (C. glabrata): 1.6 µg/mL
